In BindingDB's records for doi:10.1016/j.bmcl.2017.07.009 (Sichuan University and Collaborative Innovation Center, 2017):

Biological target: Tyrosine-protein kinase SYK (Homo sapiens) (UniProt P43405)
Test: Inhibition of recombinant human full length N-terminal His6-tagged SYK expressed in baculovirus Sf21 insect cells preincubated for 5 mins followed by substrate addition after 30 to 60 mins in presence of ATP by fluorescence assay

IC50: > 10 µM
SMILES: C=CS(=O)(=O)N1CCC[C@@H]1Cn1cc(-c2ccc3c(c2)OCO3)c2c(N)ncnc21
